The subject of one data set is H.pylori. Kind of data set: Antibacterial activity, agar well diffusion method. The format is cell-based, Helicobacter pylori. From the text:
(§1) Antibacterial activity of the isolated and synthesized compounds was perform using agar well method. Three bacterial strains selected for this experiment were H.pylori, B. subtilis and S. aureus, for all of three strains compounds show good to mederate inhibition. […] The presence of H. pylori in the stomach has been associated with a range of gastric disorders, including peptic ulcers, gastritis, and an increased risk of gastric cancer. The bacterium's ability to manipulate the gastric environment through urease activity underscores its role in the development and progression of these conditions. Different studies have targeted H. pylori and its urease activity as potential avenues for therapeutic intervention and disease management (Fig. 4).
(§2) The agar well diffusion method evaluated every compound separately. Each sterile Petri plate was aseptically filled with 20 mL of the agar medium, which was then […]. The media then solidified at room temperature. Various bacterial strains were put to agar plates using a sterile cotton swab. A 6 mm-diameter well was drilled using a sterilized cork borer. Each isolated compound was dissolved in 1 mL of a 20% DMSO solution. In a well with a diameter of 6 mm, […] of the standard drug and isolated compounds were added. […] The zone of inhibition was graphed and quantified in millimeters.[20]
Background: In agar diffusion tests the substance spreads into inoculated agar from a disc or well.

A further data set concerns S. aureus. Kind of data set: Antibacterial activity, agar well diffusion method. The format is cell-based, Staphylococcus aureus.
The next data set deals with Jack bean urease (Canavalia ensiformis, UniProt P07374). Kind of data set: biochemical. The data set is classed as biochemical. As for the experimental part: The inhibition potential of the isolated compounds against urease was investigated using a SpectraMax M2 reader using 96-well microplates.
The kinetic assay involved preparing varying concentrations of both the test compound and the substrate (urea), spanning 0 μM, 5 μM, 10 μM, 15 μM, and 20 μM. The resulting data was utilized to construct a Lineweaver–Burk plot.
In 96-well plates were incubated at 37 °C for 15 min, reaction mixtures consisting of 25 μL of test compounds (each 0.5 mM), 25 μL of enzyme solution (Jack bean urease) and 55 μL of buffers containing 20.79 mM urea. The indophenol method described by Weatherburn[21] was used to determine urease inhibitor activity by measuring ammonia production. Briefly, to each well were added 70 μL of alkaline reagent (0.5% w/v NaOH and 0.1% active chloride, NaOCl) and 45 μL of phenolic reagent (1% w/v phenol and 0.005% w/v sodium nitroprusside). The microplate reader (Molecular Devices, USA) was used to measure the increase in absorbance at 650 nm after 50 min. A final volume of 245 μL was required to perform all reactions in a triplicate. The results (absorbance change per minute) were processed using SoftMax Pro software (Molecular Devices, USA). All assays were performed at pH 6.8. Inhibition percentages were calculated from the formula% Inhibition = 100 − (Abs(sample)/Abs(control)) × 100where “A” is the absorbance of the “test well” as well as the “control”. Thiourea was used as a standard.

Data set [1] concerns human HepG2 hepatic cancer cells. Kind of data set: MTT cell viability assay. The data set is classed as cell-based. The settings on record: HepG2, MTT, 48 hours, at 200 μg. As for the experimental part: The human liver cells were cultivated in Dulbecco's modified Eagle medium (DMEM) in which 100 U mL^−1 penicillin, 10% fetal bovine and […] streptomycin were added and kept at 37 °C in a […] carbon dioxide induced humidified environment. The human liver cells prepared as per above procedure were then treated with synthesized compounds diluted to 0.05% DMSO concentration.
Using MTT assay, the % viability of cancer cells 36 was evaluated. According to the standard procedure, HepG2 cells were treated with various dosages of synthesized compounds for 48 hours each. The cells were then incubated for 4 hours at 37 °C with 10μ MTT reagent (5 mg mL^−1). Next, in 150 μL DMSO was added to dissolve formazan crystals. The λmax was recorded at 409 nm in a microplate reader (thermos scientific).
On the technique in general: Tetrazolium dyes change colour on reduction, which living cells bring about.

Another data set concerns B. subtilis. Kind of data set: Antibacterial activity, agar well diffusion method. The format is cell-based. The following applies: Table S2; unit not given.
Source text: as §1, §2

Setting [2] is: Table S2 and b89, unit not given.

Experimental findings from publication PMC10945739, “Exploring Cassia mimosoïdes as a promising natural source of steroids with potent anti-cancer, urease inhibition, and antimicrobial properties” (RSC Advances, 2024) are described below.

≈ marks a conversion by molar mass, not a printed value. Read-outs that look alike come from different tables or passages of the source.

Jack bean urease, sequence (P07374 whole entry, looked up): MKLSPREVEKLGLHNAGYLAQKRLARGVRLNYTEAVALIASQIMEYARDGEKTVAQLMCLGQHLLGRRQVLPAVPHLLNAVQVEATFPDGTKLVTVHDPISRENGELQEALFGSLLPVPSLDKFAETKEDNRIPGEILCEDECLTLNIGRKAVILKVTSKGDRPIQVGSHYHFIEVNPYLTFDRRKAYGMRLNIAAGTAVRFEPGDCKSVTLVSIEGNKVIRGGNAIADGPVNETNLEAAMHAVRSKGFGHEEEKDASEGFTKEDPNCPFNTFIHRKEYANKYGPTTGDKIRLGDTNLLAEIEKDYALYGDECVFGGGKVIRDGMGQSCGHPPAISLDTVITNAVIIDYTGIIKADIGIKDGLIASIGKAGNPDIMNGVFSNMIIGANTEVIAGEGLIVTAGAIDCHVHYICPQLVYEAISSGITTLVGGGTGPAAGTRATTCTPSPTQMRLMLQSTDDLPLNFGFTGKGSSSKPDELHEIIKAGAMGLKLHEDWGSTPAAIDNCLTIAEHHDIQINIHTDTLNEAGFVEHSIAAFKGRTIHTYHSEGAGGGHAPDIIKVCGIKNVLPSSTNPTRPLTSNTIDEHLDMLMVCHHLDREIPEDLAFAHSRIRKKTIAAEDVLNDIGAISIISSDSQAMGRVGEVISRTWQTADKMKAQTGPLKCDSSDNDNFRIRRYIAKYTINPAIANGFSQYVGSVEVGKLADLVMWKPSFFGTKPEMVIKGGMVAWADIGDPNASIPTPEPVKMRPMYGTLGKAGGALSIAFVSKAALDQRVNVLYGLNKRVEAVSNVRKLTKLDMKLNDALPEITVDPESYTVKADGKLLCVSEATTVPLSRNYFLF
Protocol for S. aureus: The agar well diffusion method evaluated every compound separately. Each sterile Petri plate was aseptically filled with 20 mL of the agar medium, which was then autoclaved at 120 °C to destroy any germs. The media then solidified at room temperature. Various bacterial strains were put to agar plates using a sterile cotton swab. A 6 mm-diameter well was drilled using a sterilized cork borer. […] In a well with a diameter of 6 mm, 20 mL of the standard drug and isolated compounds were added. At 37 °C, the test plates were incubated for 24 hours. The test plates were incubated at 37 °C for 24 hours. The standard disc containing 50 mg of ciprofloxacin served as a positive control for antibacterial activity, and DMSO served as a negative control.

Consider `C=C(CCC(=CC)C(C)C)C1CCC2C3=CCC4C(C)C(O)CCC4(C)C3CCC12C` (stereo not drawn) [Compound 1, 21-methylene-24-ethylidene lophenol], for which the MIC in the data set with H.pylori (Helicobacter pylori, abstract, read-out: MIC against H. pylori) was found to be 0.28 µg/mL (≈ 0.659 µM); in the data set with S. aureus (Staphylococcus aureus, abstract, read-out: MIC against S. aur), 0.12 µg/mL (≈ 0.283 µM). This molecule also came in with an IC50 against Jack bean urease of 1020 ± 350 nM. Also, the inhibition at 500 µM at Jack bean urease (pH 6.8, read-out: % Inhibition of urease) was found to be 82.3%. The “mode of inhibition, Lineweaver–Burk plot” value on Jack bean urease (urea and compound 0–20 μM) was “competitive”.

With `O=c1cc(-c2ccc(O)c(O)c2)oc2cc(O)c([C@@H]3O[C@H](CO)[C@@H](O)[C@H](O)[C@H]3O)c(O)c12` [Compound 7, Luteolin-6-C-β-D-glucopyranoside], the “Antibacterial activity (MIC) against H.Pylori” value with H.pylori (setting [2]) was determined as 1.23. Moreover, the “Antibacterial activity (MIC) against S. aureus” value in the data set on S. aureus (setting [2]) is 0.78. Further, in data set [1], the “% Viability” value was determined as 97.94 ± 3.53%. For the same molecule, the IC50 at Jack bean urease (pH 6.8, read-out: IC50 ± SEM, urease) was determined as 1220 ± 430 nM; on Jack bean urease (unit inferred, read-out: IC50, urease (printed in Fig. 6)), 1220 ± 430 nM. Further, the “% Inhibition of urease” value on Jack bean urease (test compounds each 0.5 mM, pH 6.8) came out at 81.57%. In the data set with B. subtilis, the “Antibacterial activity against B. subtilis” value worked out at 0.12.

By MIC is commonly meant the lowest concentration that inhibits growth of the organism. Broadly, the IC50 is the concentration needed to halve the response being measured. Usually inhibition stands for the percentage by which the read-out fell short of the control.
